Test results published in ChEMBL document CHEMBL1132928 (J Med Chem, 2000).
The source made the active and inactive calls. The calls are words filed in the database; no cut-off is given here. Where a SMILES comes first, the peptide text is derived from it. Bridges are numbered along the chain shown (N, C = ends).

What was measured:
[1] = In vitro adenylate cyclase activity using rat liver plasma membrane bioassay. Value is inactive up to 50 uM
[2] = target: Glucagon receptor (Rattus norvegicus) (UniProt P30082); assay: In vitro receptor binding affinity using rat liver plasma membrane bioassay; inactive
Sequence of Glucagon receptor (Rattus norvegicus) (P30082 whole entry): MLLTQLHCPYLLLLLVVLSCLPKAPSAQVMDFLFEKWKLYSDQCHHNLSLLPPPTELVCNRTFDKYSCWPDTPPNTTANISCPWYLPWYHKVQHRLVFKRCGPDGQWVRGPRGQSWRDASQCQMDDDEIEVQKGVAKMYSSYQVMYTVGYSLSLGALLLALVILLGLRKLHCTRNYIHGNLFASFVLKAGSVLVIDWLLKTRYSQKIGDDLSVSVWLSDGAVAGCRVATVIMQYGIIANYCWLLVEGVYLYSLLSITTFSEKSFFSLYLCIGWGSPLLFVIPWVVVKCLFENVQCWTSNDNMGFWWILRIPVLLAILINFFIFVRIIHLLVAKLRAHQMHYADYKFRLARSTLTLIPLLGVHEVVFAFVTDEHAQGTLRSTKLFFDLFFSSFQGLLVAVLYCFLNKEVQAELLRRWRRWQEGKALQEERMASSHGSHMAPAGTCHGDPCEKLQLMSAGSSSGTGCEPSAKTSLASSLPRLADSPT

[3] = target: Adenylate cyclase type 5 (Rattus norvegicus) (UniProt Q04400); assay: Percent stimulation ofcAMP production was measured in vitro using rat liver plasma membrane bioassay; none; format: functional, cell-free
Sequence of Adenylate cyclase type 5 (Rattus norvegicus) (Q04400 whole entry): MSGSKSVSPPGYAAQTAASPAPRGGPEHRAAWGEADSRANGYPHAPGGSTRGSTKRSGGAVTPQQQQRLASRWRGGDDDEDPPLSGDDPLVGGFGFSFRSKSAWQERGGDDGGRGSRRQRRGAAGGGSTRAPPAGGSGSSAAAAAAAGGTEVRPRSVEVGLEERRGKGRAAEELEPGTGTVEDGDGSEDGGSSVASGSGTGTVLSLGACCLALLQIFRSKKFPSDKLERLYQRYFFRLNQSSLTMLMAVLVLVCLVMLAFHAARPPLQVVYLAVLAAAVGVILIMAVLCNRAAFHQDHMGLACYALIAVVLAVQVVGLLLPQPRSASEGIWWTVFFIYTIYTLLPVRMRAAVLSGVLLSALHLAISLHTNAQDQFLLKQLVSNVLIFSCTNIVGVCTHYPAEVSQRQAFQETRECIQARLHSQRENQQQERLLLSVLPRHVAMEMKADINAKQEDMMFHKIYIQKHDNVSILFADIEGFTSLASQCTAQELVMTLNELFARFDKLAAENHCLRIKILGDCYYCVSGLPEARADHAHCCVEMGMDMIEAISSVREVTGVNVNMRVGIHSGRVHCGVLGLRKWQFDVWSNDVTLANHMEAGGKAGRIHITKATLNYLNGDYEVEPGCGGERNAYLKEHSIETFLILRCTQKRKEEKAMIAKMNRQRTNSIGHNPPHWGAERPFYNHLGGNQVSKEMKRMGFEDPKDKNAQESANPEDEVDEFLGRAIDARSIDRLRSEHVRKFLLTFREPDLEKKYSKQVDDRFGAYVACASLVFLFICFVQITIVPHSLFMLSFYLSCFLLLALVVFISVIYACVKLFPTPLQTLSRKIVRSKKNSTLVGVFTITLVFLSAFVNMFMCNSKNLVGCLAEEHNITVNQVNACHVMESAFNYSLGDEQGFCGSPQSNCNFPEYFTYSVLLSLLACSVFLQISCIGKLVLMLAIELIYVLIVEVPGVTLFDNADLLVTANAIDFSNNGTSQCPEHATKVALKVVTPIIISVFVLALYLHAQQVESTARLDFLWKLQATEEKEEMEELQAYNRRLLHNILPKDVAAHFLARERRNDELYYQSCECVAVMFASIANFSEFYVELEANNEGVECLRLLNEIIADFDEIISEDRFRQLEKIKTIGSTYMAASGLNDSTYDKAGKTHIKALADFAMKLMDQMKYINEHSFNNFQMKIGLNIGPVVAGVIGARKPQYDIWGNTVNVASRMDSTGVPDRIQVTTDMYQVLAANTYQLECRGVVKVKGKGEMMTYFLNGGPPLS

Glucagon receptor = Glucagon receptor (Rattus norvegicus, UniProt P30082); assay: In vitro receptor binding affinity (95% CL) using rat liver plasma membrane bioassay
Sequence of Glucagon receptor (P30082 whole entry): as the sequence (P30082 whole entry) above

[4] = pA2 values were obtained from the dose / response plots; format: ADME
[5] = target: Adenylate cyclase type 5 (Rattus norvegicus) (UniProt Q04400); assay: Percent stimulation ofcAMP production was measured in vitro using rat liver plasma membrane bioassay; format: functional, cell-free
[6] = In vitro adenylate cyclase activity using rat liver plasma membrane bioassay; format: tissue-based

Row | IC50 (Glucagon receptor) | Molecule | Max stimulation [5] | Potency [6] | also measured
1 |  | CSCC[C@H](NC(=O)[C@H](CC(C)C)NC(=O)[C@H](Cc1c[nH]c2ccccc12)NC(=O)[C@H](CCC(N)=O)NC(=O)[C@@H](NC(=O)[C@@H](Cc1ccccc1)NC(=O)[C@@H]1CCC(=O)NCCCC[C@H](NC(=O)[C@H](CO)NC(=O)[C@@H](CC(=O)O)NC(=O)[C@@H](CC(C)C)NC(=O)[C@H](Cc2ccc(O)cc2)NC(=O)[C@H]2CCCCNC(=O)C[C@H](NC(=O)[C@H](CO)NC(=O)[C@H](NC(=O)[C@@H](Cc3ccccc3)NC(=O)[C@H](NC(=O)CNC(=O)[C@@H](CCC(N)=O)NC(=O)[C@@H](CO)NC(=O)[C@H](N)Cc3c[nH]cn3)[C@H](C)O)[C@H](C)O)C(=O)N[C@@H](Cc3ccc(O)cc3)C(=O)N[C@H](CO)C(=O)N2)C(=O)N[C@@H](CCCCN)C(=O)N[C@H](C)C(=O)N[C@@H](CCC(N)=O)C(=O)N1)C(C)C)C(=O)N[C@@H](CC(N)=O)C(=O)N[C@H](C(N)=O)[C@@H](C)O |  |  | Potency [1]: Inactive up to 50 uM; IA [2]: inactive; Max stimulation [3]: inactive
2 | 0.25 µM | CSCC[C@H](NC(=O)[C@H](CC(C)C)NC(=O)[C@H](Cc1c[nH]c2ccccc12)NC(=O)[C@H](CCC(N)=O)NC(=O)[C@@H](NC(=O)[C@H](Cc1ccccc1)NC(=O)[C@H](CCC(=O)O)NC(=O)[C@H](CCC(N)=O)NC(=O)[C@H](C)NC(=O)[C@H](CCCCN)NC(=O)[C@H](CCCCN)NC(=O)[C@H](CO)NC(=O)[C@H](CC(=O)O)NC(=O)[C@H](CC(C)C)NC(=O)[C@H](Cc1ccc(O)cc1)NC(=O)[C@@H]1CCCCNC(=O)C[C@H](NC(=O)[C@H](CO)NC(=O)[C@@H](NC(=O)[C@H](Cc2ccccc2)NC(=O)[C@@H](NC(=O)CNC(=O)[C@H](CCC(N)=O)NC(=O)[C@H](CO)NC(=O)[C@@H](N)Cc2cnc[nH]2)[C@@H](C)O)[C@@H](C)O)C(=O)N[C@@H](Cc2ccc(O)cc2)C(=O)N[C@@H](CO)C(=O)N1)C(C)C)C(=O)N[C@@H](CC(N)=O)C(=O)N[C@H](C(N)=O)[C@@H](C)O (H-HSQGTFTSDYSKYLDSKKAQEFVQWLMNT-NH2; lactam 9-12) |  |  | pA2 [4]: 6.3
3 |  | GLUCAGON | 100% | 100% | 
4 | 0.054 µM | CSCC[C@H](NC(=O)[C@H](CC(C)C)NC(=O)[C@H](Cc1c[nH]c2ccccc12)NC(=O)[C@H](CCC(N)=O)NC(=O)[C@@H](NC(=O)[C@H](Cc1ccccc1)NC(=O)[C@@H]1CCC(=O)NCCCC[C@H](NC(=O)[C@H](CCCCN)NC(=O)[C@H](CO)NC(=O)[C@H](CC(=O)O)NC(=O)[C@H](CC(C)C)NC(=O)[C@H](Cc2ccc(O)cc2)NC(=O)[C@H](CCCCN)NC(=O)[C@H](CO)NC(=O)[C@H](Cc2ccc(O)cc2)NC(=O)[C@H](CC(=O)O)NC(=O)[C@H](CO)NC(=O)[C@@H](NC(=O)[C@H](Cc2ccccc2)NC(=O)[C@@H](NC(=O)CNC(=O)[C@H](CCC(N)=O)NC(=O)[C@H](CO)NC(=O)[C@@H](N)Cc2c[nH]cn2)[C@@H](C)O)[C@@H](C)O)C(=O)N[C@@H](C)C(=O)N[C@@H](CCC(N)=O)C(=O)N1)C(C)C)C(=O)N[C@@H](CC(N)=O)C(=O)N[C@H](C(N)=O)[C@@H](C)O |  |  | EC50 (Glucagon receptor): 0.32 µM
5 |  | CSCC[C@@H](NC(=O)[C@@H](CC(C)C)NC(=O)[C@@H](Cc1c[nH]c2ccccc12)NC(=O)[C@@H](CCC(N)=O)NC(=O)[C@H](NC(=O)[C@H](Cc1ccccc1)NC(=O)[C@H]1CCC(=O)NCCCC[C@H](NC(=O)[C@H](CCCCN)NC(=O)[C@@H](CO)NC(=O)[C@@H](CC(=O)O)NC(=O)[C@@H](CC(C)C)NC(=O)[C@@H](Cc2ccc(O)cc2)NC(=O)[C@@H](CCCCN)NC(=O)[C@@H](CO)NC(=O)[C@@H](Cc2ccc(O)cc2)NC(=O)[C@@H](CC(=O)O)NC(=O)[C@@H](CO)NC(=O)[C@H](NC(=O)[C@@H](Cc2ccccc2)NC(=O)[C@H](NC(=O)CNC(=O)[C@@H](CCC(N)=O)NC(=O)[C@@H](CO)NC(=O)[C@H](N)Cc2c[nH]cn2)[C@H](C)O)[C@H](C)O)C(=O)N[C@@H](C)C(=O)N[C@H](CCC(N)=O)C(=O)N1)C(C)C)C(=O)N[C@H](CC(N)=O)C(=O)N[C@@H](C(N)=O)[C@H](C)O | 60% | 1.6% | 
